Like-named read-outs stand apart in the source and are kept apart here.
Legend:
Assay in all cases: Glasshouse assay for herbicidal activity (pre- and post-emergence), percentage phytotoxicity
Assay type in all cases: in vivo
Lolium perenne (LOLPE) = details: Lolium perenne
Procedure: (§1) Test—Glasshouse Assay for Herbicidal Activity
(§2) Seeds of a variety of monocotyledonous and dicotyledonous test plants are sown in standard soil in pots. The plants are cultivated for one day (for pre-emergence (PRE)) or for about 12 days (for post-emergence (POST)) under controlled conditions in a glasshouse (warm climate species at 24/18° C., cool climate species at 20/16° C., both at day/night; 16 hours light; 65% humidity).
(§3) The test plants are then grown on, in a glasshouse (greenhouse) under controlled conditions (warm climate species at 24/18° C., cool climate species at 20/16° C., both at day/night; 16 hours light; 65% humidity) and are watered twice daily. 15 days after application of the test herbicide (15 DAA) (for post-emergence), and 20 days after application of the test herbicide (20 DAA) (for pre-emergence), the test plants are evaluated visually, and an assessed percentage phytotoxicity score is given for each herbicidal application on each plant species (with 100%=total damage to plant; 0%=no damage to plant).
(§4) The plant species tested are as follows: Alopecurus myosuroides (ALOMY), Avena fatua (AVEFA), Lolium perenne (LOLPE), Echinochloa crus-galli (ECHCG).

Avena fatua (AVEFA) = details: Avena fatua
Procedure: as §1, §2, §3, §4

[1] = system: Alopecurus myosuroides (ALOMY); details: Alopecurus myosuroides
Procedure: as §1, §2, §3, §4

[2] = system: Echinochloa crus-galli (ECHCG); details: Echinochloa crus-galli
Procedure: as §1, §2, §3, §4

[3] = post-emergence, 360 h, POST-emergence, rate 250 g/ha, visual score 15 DAA (100%=total damage, 0%=no damage), read-out: Post-emergence herbicidal activity (percentage phytotoxicity) LOLPE POST
[4] = pre-emergence, 480 h, PRE-emergence, rate 250 g/ha, visual score 20 DAA (100%=total damage, 0%=no damage), read-out: Pre-emergence herbicidal activity (percentage phytotoxicity) LOLPE PRE
[5] = post-emergence, 360 h, POST-emergence, rate 250 g/ha, visual score 15 DAA (100%=total damage, 0%=no damage), read-out: Post-emergence herbicidal activity (percentage phytotoxicity) AVEFA POST
[6] = pre-emergence, 480 h, PRE-emergence, rate 250 g/ha, visual score 20 DAA (100%=total damage, 0%=no damage), read-out: Pre-emergence herbicidal activity (percentage phytotoxicity) AVEFA PRE
[7] = post-emergence, 360 h, POST-emergence, rate 250 g/ha, visual score 15 DAA (100%=total damage, 0%=no damage), read-out: Post-emergence herbicidal activity (percentage phytotoxicity) ALOMY POST
[8] = pre-emergence, 480 h, PRE-emergence, rate 250 g/ha, visual score 20 DAA (100%=total damage, 0%=no damage), read-out: Pre-emergence herbicidal activity (percentage phytotoxicity) ALOMY PRE
[9] = post-emergence, 360 h, POST-emergence, rate 250 g/ha, visual score 15 DAA (100%=total damage, 0%=no damage), read-out: Post-emergence herbicidal activity (percentage phytotoxicity) ECHCG POST
[10] = pre-emergence, 480 h, PRE-emergence, rate 250 g/ha, visual score 20 DAA (100%=total damage, 0%=no damage), read-out: Pre-emergence herbicidal activity (percentage phytotoxicity) ECHCG PRE

Row | SMILES | pest or weed control at 250 g/ha (Lolium perenne (LOLPE); post-emergence, 360 h, post-emergence, 250 g/ha, 15 DAA, visual score (100%=total damage; 0%=no damage), read-out: LOLPE POST herbicidal activity (percentage phytotoxicity)) [%] | pest or weed control at 250 g/ha (Lolium perenne (LOLPE); pre-emergence, 480 h, pre-emergence, 250 g/ha, 20 DAA, visual score (100%=total damage; 0%=no damage), read-out: LOLPE PRE herbicidal activity (percentage phytotoxicity)) [%] | pest or weed control at 250 g/ha (Avena fatua (AVEFA); post-emergence, 360 h, post-emergence, 250 g/ha, 15 DAA, visual score (100%=total damage; 0%=no damage), read-out: AVEFA POST herbicidal activity (percentage phytotoxicity)) [%] | pest or weed control at 250 g/ha (Avena fatua (AVEFA); pre-emergence, 480 h, pre-emergence, 250 g/ha, 20 DAA, visual score (100%=total damage; 0%=no damage), read-out: AVEFA PRE herbicidal activity (percentage phytotoxicity)) [%] | pest or weed control at 250 g/ha ([1]; post-emergence, 360 h, post-emergence, 250 g/ha, 15 DAA, visual score (100%=total damage; 0%=no damage), read-out: ALOMY POST herbicidal activity (percentage phytotoxicity)) [%] | pest or weed control at 250 g/ha ([1]; pre-emergence, 480 h, pre-emergence, 250 g/ha, 20 DAA, visual score (100%=total damage; 0%=no damage), read-out: ALOMY PRE herbicidal activity (percentage phytotoxicity)) [%] | pest or weed control at 250 g/ha ([2]; post-emergence, 360 h, post-emergence, 250 g/ha, 15 DAA, visual score (100%=total damage; 0%=no damage), read-out: ECHCG POST herbicidal activity (percentage phytotoxicity)) [%] | pest or weed control at 250 g/ha ([2]; pre-emergence, 480 h, pre-emergence, 250 g/ha, 20 DAA, visual score (100%=total damage; 0%=no damage), read-out: ECHCG PRE herbicidal activity (percentage phytotoxicity)) [%] | pest or weed control at 250 g/ha (Lolium perenne (LOLPE); [3]) [%] | pest or weed control at 250 g/ha (Lolium perenne (LOLPE); [4]) [%] | pest or weed control at 250 g/ha (Avena fatua (AVEFA); [5]) [%] | pest or weed control at 250 g/ha (Avena fatua (AVEFA); [6]) [%] | pest or weed control at 250 g/ha [1, 7] [%] | pest or weed control at 250 g/ha [1, 8] [%] | pest or weed control at 250 g/ha [2, 9] [%] | pest or weed control at 250 g/ha [2, 10] [%]
1 | CCSC(=O)OC1=C(c2c(C)cc(-c3ncc(Cl)cn3)cc2C)C(=O)C(CC(=O)NC(C)(C)C)C1 (stereo not drawn) [Compound P5] | 100 | 100 | 100 | 90 | 100 | 100 | 100 | 100 |  |  |  |  |  |  |  | 
2 | CCc1cc(-n2cc(Cl)cn2)cc(C)c1C1C(=O)CC(CC(=O)NCC2CC2)C1=O (stereo not drawn) [Compound B237] |  |  |  |  |  |  |  |  | 100 | 90 | 100 | 90 | 100 | 100 | 100 | 90
3 | C/C=C/c1cc(C)c(C2C(=O)CC(CC(=O)N(C)CC)C2=O)c(CC)c1 (stereo not drawn) [Compound B194] |  |  |  |  |  |  |  |  | 100 | 100 | 100 | 80 | 100 | 100 | 100 | 90
4 | C/C=C/c1cc(C)c(C2C(=O)CC(CC(=O)NCc3cccc(F)c3)C2=O)c(C)c1 (stereo not drawn) [Compound B242] |  |  |  |  |  |  |  |  | 100 | 0 | 90 | 0 | 90 | 0 | 100 | 0
5 | Cc1cc(Br)cc(C)c1C1C(=O)CC(CC(=O)NCC2CC2(F)F)C1=O (stereo not drawn) [Compound B198] |  |  |  |  |  |  |  |  | 100 | 70 | 100 | 60 | 100 | 90 | 100 | 80
6 | CCc1cc(-n2cc(Cl)cn2)cc(C)c1C1C(=O)CC(CC(=O)NCc2cccc(F)c2)C1=O (stereo not drawn) [Compound B232] |  |  |  |  |  |  |  |  | 100 | 90 | 100 | 70 | 100 | 90 | 100 | 90

Source: patent US10206394B2, “Herbicidal compounds” (Syngenta Participations AG, priority 2014, dated 2019)
